We go through 27 molecules from patent US10676431B2, “Phenylpyrrolidinone formyl peptide 2 receptor agonists” (BRISTOL-MYERS SQUIBB COMPANY, priority 2018, dated 2020).

SMILES strings stand for the structures. pEC50: −log10 of the molar value.

What is called pEC50 is −log10 of the EC50, conventionally taken in molar units.

One assay has as its target human FPR2 (Homo sapiens (Human), UniProt P25090). The assay can be described thus: FPR2 cyclic adenosine monophosphate (cAMP) assay. The following applies: CHO cells overexpressing human FPR2; forskolin 5 μM, IBMX 200 μM; inhibition of cAMP production, HTRF; read-out: hFPR2 cAMP2 EC50. It counts as cell-based. In short, it runs like this:
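CHO cells overexpressing human FPR2 (2,000/well) or FPR1 (4,000/well) incubated 30 min at room temperature with compound (0.020 nM–100 μM, 1% DMSO), IBMX 200 μM and forskolin (5 μM for FPR2, 10 μM for FPR1). Intracellular cAMP read by HTRF against a cAMP standard curve; inhibition of cAMP production fitted to a 4-parameter logistic.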

The target in another assay is human FPR1 (Homo sapiens (Human), UniProt P21462). The assay can be described thus: FPR1 cyclic adenosine monophosphate (cAMP) assay. It counts as cell-based. The following applies: CHO cells overexpressing human FPR1; forskolin 10 μM, IBMX 200 μM; inhibition of cAMP production, HTRF; read-out: hFPR1 cAMP EC50. In short, it runs like this:
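CHO cells overexpressing human FPR1 (4,000 per well) were incubated 30 min at room temperature with compound (0.020 nM–100 μM, 1% DMSO), 10 μM forskolin and 200 μM IBMX. Intracellular cAMP was read by HTRF. Inhibition of cAMP production was fitted to a 4-parameter logistic equation.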
Background: cAMP levels reflect the balance of adenylyl cyclase and phosphodiesterase activity.

human FPR1, sequence (P21462 whole entry): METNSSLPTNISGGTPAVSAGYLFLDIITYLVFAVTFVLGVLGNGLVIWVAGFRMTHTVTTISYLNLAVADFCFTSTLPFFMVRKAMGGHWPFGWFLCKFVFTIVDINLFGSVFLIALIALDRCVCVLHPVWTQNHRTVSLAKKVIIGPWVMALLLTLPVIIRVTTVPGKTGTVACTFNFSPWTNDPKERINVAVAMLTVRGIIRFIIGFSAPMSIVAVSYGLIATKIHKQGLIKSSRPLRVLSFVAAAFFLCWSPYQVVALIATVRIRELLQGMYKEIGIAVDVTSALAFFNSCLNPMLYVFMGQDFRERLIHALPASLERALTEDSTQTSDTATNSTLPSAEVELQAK
human FPR2, sequence (P25090 whole entry): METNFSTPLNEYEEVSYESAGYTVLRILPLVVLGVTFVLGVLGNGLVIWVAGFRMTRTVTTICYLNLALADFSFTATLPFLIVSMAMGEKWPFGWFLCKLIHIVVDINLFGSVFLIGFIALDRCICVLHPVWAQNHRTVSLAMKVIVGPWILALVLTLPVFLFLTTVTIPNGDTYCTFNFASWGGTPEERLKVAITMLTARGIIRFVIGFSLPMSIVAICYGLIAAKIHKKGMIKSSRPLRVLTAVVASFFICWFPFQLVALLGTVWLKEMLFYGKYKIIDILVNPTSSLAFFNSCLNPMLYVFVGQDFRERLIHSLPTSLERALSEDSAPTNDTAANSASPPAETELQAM

As to `CC1C[C@@H](NC(=O)Nc2ccc(Cl)cc2F)C(=O)N1c1ccc(-c2ccccc2P(C)(C)=O)c(F)c1F` (stereo in doubt) [Example 109, 1-(4-Chloro-2-fluorophenyl)-3-(1-(2′-(dimethylphosphoryl)-2,3-difluoro-[1,1′-biphenyl]-4-yl)-5-methyl-2-oxopyrrolidin-3-yl)urea], the figures for the negative-log EC50 (pEC50) on human FPR2 and on human FPR1 were 9.36 and 6.41, respectively.
In the same order, the values of `CP(C)(=O)c1ccccc1-c1ccc(N2CC[C@@H](NC(=O)Nc3ccc(OC(F)(F)F)cc3F)C2=O)c(F)c1F` [Example 69] are 7.66 and 5.30.
For `CP(C)(=O)c1ccccc1-c1ccc(N2CC[C@@H](NC(=O)Nc3ncc(Cl)cc3F)C2=O)c(F)c1F` [Example 56], the pEC50 at human FPR2 was 8.12; on human FPR1 it was 5.11.
The corresponding values for `CS(=O)(=O)c1ccccc1-c1ccc(N2CC[C@@H](NC(=O)Nc3ccc(Cl)cc3F)C2=O)c(F)c1F` [Example 7] are 8.68 and 6.85.
In the same order, the values of `CC1(C)CN(c2ccc(-c3ccccc3P(C)(C)=O)c(F)c2F)C(=O)[C@@H]1NC(=O)Nc1ccc(C(F)(F)F)cc1F` [Example 102] are 8.77 and 6.24.
The corresponding values for `CC(C)c1cc(-c2ccccc2P(C)(C)=O)ccc1N1CC[C@@H](NC(=O)Nc2ncc(Cl)cc2F)C1=O` [Example 61] are 7.64 and 6.43.
For `CP(C)(=O)c1ccccc1-c1ccc(N2CC[C@@H](NC(=O)Nc3ccc(Cl)cc3F)C2=O)c(F)c1OC(F)(F)F` [Example 87], the pEC50 on human FPR2 was 8.80; at human FPR1, 8.92.
In the same order, the values of `CC(C)c1cc(-c2ccccc2NS(C)(=O)=O)ccc1N1CC[C@@H](NC(=O)Nc2ccc(C(F)(F)F)cc2F)C1=O` [Example 37] are 8.85 and 6.77.
The corresponding values for `CP(C)(=O)c1ccccc1-c1ccc(N2CC[C@@H](NC(=O)Nc3ccc(C(F)(F)F)cc3F)C2=O)c(Cl)c1F` [Example 98] are 8.54 and 6.57.
For the molecule `Cc1c(N2CC[C@@H](NC(=O)Nc3ccc(Cl)cc3F)C2=O)ccc(-c2ccccc2P(C)(C)=O)c1F` [Example 96], the negative logarithm of the EC50 (pEC50) was 8.54 on human FPR2 and 7.12 at human FPR1.
The corresponding values for `CP(C)(=O)c1ncccc1-c1ccc(N2C(=O)[C@H](NC(=O)Nc3ccc(C(F)(F)F)cc3F)C[C@H]2CO)c(F)c1F` [Example 123] are 8.82 and 6.62.
The corresponding values for `O=C(Nc1ccc(Cl)cc1)N[C@@H]1CCN(c2ccc(-c3ccccc3F)c(F)c2F)C1=O` [Example 16] are 7.92 and 6.92.
As for `CP(C)(=O)c1ccccc1-c1ccc(N2CC[C@@H](NC(=O)Nc3ccc(Cl)cc3F)C2=O)c(F)c1Cl` [Example 81], the negative logarithm of the EC50 (pEC50) was 9.28 at human FPR2 and 7.57 at human FPR1.
In the same order, the values of `CC1C[C@@H](NC(=O)Nc2ccc(Cl)cc2F)C(=O)N1c1ccc(-c2cccnc2P(C)(C)=O)c(F)c1F` (stereo partly drawn) [Example 121] are 9.52 and 8.30.
In the same order, the values of `CS(=O)(=O)Nc1ccccc1-c1ccc(N2CC[C@@H](NC(=O)Nc3ccc(C(F)(F)F)cc3)C2=O)c(F)c1F` [Example 6] are 9.00 and 6.72.
The corresponding values for `CS(=O)(=O)Nc1ccccc1-c1ccc(N2CC[C@@H](NC(=O)Nc3ccc(Cl)cc3F)C2=O)c(F)c1F` [Example 5] are 9.17 and 6.64.
With `O=C(Nc1ccc(Cl)cc1)N[C@@H]1CCN(c2ccc(-c3cccnc3F)c(F)c2F)C1=O` [Example 19], the pEC50 at human FPR2 is 7.66; on human FPR1 it was 7.11.
In the same order, the values of `CS(=N)(=O)c1ccccc1-c1ccc(N2CC[C@@H](NC(=O)Nc3ccc(Cl)cc3F)C2=O)c(F)c1F` (stereo partly drawn) [Example 59] are 8.77 and 6.85.
The corresponding values for `CC1C[C@@H](NC(=O)Nc2ccc(C(F)(F)F)cc2F)C(=O)N1c1ccc(-c2ccccc2P(C)(C)=O)c(F)c1F` (stereo partly drawn) [Example 115] are 8.92 and 7.26.
In the case of `CP(C)(=O)c1ccccc1-c1ccc(N2CC(CO)[C@@H](NC(=O)Nc3ccc(Cl)cc3F)C2=O)c(F)c1F` (stereo partly drawn) [Example 126], the pEC50 on human FPR2 is 7.92; on human FPR1 it was below 5.00.
In the same order, the values of `CC(N)c1cccc(-c2ccc(N3CC[C@@H](NC(=O)Nc4ccc(Cl)cc4)C3=O)c(F)c2F)c1` (stereo partly drawn) [Example 22] are 7.48 and 5.82.
`CP(C)(=O)c1c(F)cccc1-c1ccc(N2CC[C@@H](NC(=O)Nc3ccc(Cl)cc3F)C2=O)c(F)c1F` [Example 70]: the pEC50 is 10.11 at human FPR2 and 7.70 at human FPR1.
In the same order, the values of `Cn1ccc(-c2ccc(N3CC[C@@H](NC(=O)Nc4ccc(Cl)cc4F)C3=O)c(F)c2F)n1` [Example 28] are 8.01 and 6.26.
For the molecule `CC1(C)CN(c2ccc(-c3cccnc3P(C)(C)=O)c(F)c2F)C(=O)[C@@H]1NC(=O)Nc1ccc(Cl)cc1F` [Example 113], the pEC50 at human FPR2 is 9.41; at human FPR1 it was 6.23.
The corresponding values for `CS(=O)(=O)Nc1ccccc1-c1ccc(N2CC[C@@H](NC(=O)Nc3ccc(Cl)cc3)C2=O)c(F)c1F` [Example 1, (R)—N-(4′-(3-(3-(4-Chlorophenyl)ureido)-2-oxopyrrolidin-1-yl)-2′,3′-difluoro-[1,1′-biphenyl]-2-yl)methanesulfonamide] are 9.37 and 6.70.
In the same order, the values of `CC1C[C@@H](NC(=O)Nc2ccc(C(F)(F)F)cc2F)C(=O)N1c1ccc(-c2ccccc2P(C)(C)=O)c(F)c1F` (stereo partly drawn) [Example 116] are 8.92 and 6.05.
In the same order, the values of `O=C(Nc1ccc(Cl)cc1F)N[C@@H]1CCN(c2ccc(-c3ccccc3N3CCOC3=O)c(F)c2F)C1=O` [Example 119] are 7.85 and 6.72.
